Test results: PubChem BioAssay (NCI)
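How tested: cells in 96-well plates exposed to compound for 48 hours at five concentrations. TGI: concentration producing complete growth inhibition.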

Assays:
Assay in all cases: NCI-60 cell line screen, 48 h
A498 renal = test system: A498 renal
ACHN renal = test system: ACHN renal
COLO 205 colon = test system: COLO 205 colon
HCT-116 colon = test system: HCT-116 colon
HCT-15 colon = test system: HCT-15 colon
HOP-62 NSCLC = test system: HOP-62 NSCLC
HT29 colon = test system: HT29 colon
IGROV1 ovarian = test system: IGROV1 ovarian
KM12 colon = test system: KM12 colon
MALME-3M melanoma = test system: MALME-3M melanoma
MOLT-4 leukemia = test system: MOLT-4 leukemia
NCI-H460 lung = test system: NCI-H460 lung
NCI/ADR-RES ovarian = test system: NCI/ADR-RES ovarian
OVCAR-8 ovarian = test system: OVCAR-8 ovarian
SK-MEL-2 melanoma = test system: SK-MEL-2 melanoma
SN12C renal = test system: SN12C renal
T-47D breast = test system: T-47D breast
TK-10 renal = test system: TK-10 renal
UACC-62 melanoma = test system: UACC-62 melanoma
HCC-2998 colon = test system: HCC-2998 colon

Row | SMILES | TGI (A498 renal) [µM] | TGI (ACHN renal) [µM] | TGI (COLO 205 colon) [µM] | TGI (HCT-116 colon) [µM] | TGI (HCT-15 colon) [µM] | TGI (HOP-62 NSCLC) [µM] | TGI (HT29 colon) [µM] | TGI (IGROV1 ovarian) [µM] | TGI (KM12 colon) [µM] | TGI (MALME-3M melanoma) [µM] | TGI (MOLT-4 leukemia) [µM] | TGI (NCI-H460 lung) [µM] | TGI (NCI/ADR-RES ovarian) [µM] | TGI (OVCAR-8 ovarian) [µM] | TGI (SK-MEL-2 melanoma) [µM] | TGI (SN12C renal) [µM] | TGI (T-47D breast) [µM] | TGI (TK-10 renal) [µM] | TGI (UACC-62 melanoma) [µM] | TGI (HCC-2998 colon) [µM]
1 | O=[N+]([O-])c1ccc(/C=N/n2c(CO)nc3ccccc32)o1 | 32.4 | 17.3 | 10.6 | 7.86 | 15.7 | 28.7 | 10.3 | 6.09 | 15.4 | 5.44 | 7.12 | 16.3 | 74.7 | 25.3 | 24.1 | 18.1 | 47.9 | 19.2 | 21.9 | 
2 | COc1cc(Nc2cnc3cc(F)c(F)cc3n2)cc(OC)c1OC | > 100 | > 100 | > 100 | > 100 | > 100 | > 100 | > 100 | > 100 | > 100 | > 100 | > 100 | > 100 | > 100 | > 100 | > 100 | > 100 | > 100 | > 100 | > 100 | 
3 | Clc1c(Cl)c(Cl)c2nn(C3CCCO3)nc2c1Cl (stereo unspecified) | > 100 |  | > 100 | > 100 |  | > 100 | > 100 | > 100 |  | > 100 | > 100 |  | > 100 | > 100 | > 100 | > 100 | > 100 | > 100 | > 100 | > 100
4 | COC(=O)C(C)(NC(=O)C(CC(=O)OC(C)(C)C)NC(=O)OC(C)(C)C)c1ccccc1 (stereo unspecified) | > 100 | > 100 | > 100 | > 100 | > 100 | > 100 | > 100 | > 100 | > 100 | > 100 | > 100 | > 100 | > 100 | > 100 |  | > 100 | > 100 | > 100 | > 100 | > 100
5 | COc1cc(-c2cc(=O)c3c(OC)c(OC)c(OC)c(OC)c3o2)c(OC)c(OC)c1OC |  | > 100 | > 100 | > 100 | > 100 | > 100 | > 100 | > 100 | 90.3 | > 100 | > 100 | > 100 | 66.8 | > 100 | 49.4 | > 100 | 51 | > 100 | 49.1 | > 100
6 | O=C(CCCn1ccnc1[N+](=O)[O-])NCCn1cncc1[N+](=O)[O-] | > 100 | > 100 | > 100 | > 100 | > 100 | > 100 | > 100 | > 100 | > 100 | > 100 | > 100 | > 100 | > 100 | > 100 | > 100 | > 100 | > 100 | > 100 | > 100 | 
